Data on one molecule can be found in EP4120837B1, “INHIBITORS OF CYTOKININ OXIDASE DERIVED FROM 2-(3-PHENYLUREIDO)BENZAMIDE, USE THEREOF AND PREPARATIONS CONTAINING THESE DERIVATIVES” (Univerzita Palackého v Olomouci, priority 2020, dated 2021).

Assay [1] relates to wheat. In words: Field trial, seed yield of wheat. Type of assay: in vivo. The note with it: for Yield (%): control = 100 %. The protocol: Example 19. The application of compound 24 increases the seed yield of wheat in field conditions In 2017, the effect of the application of substance 24 on wheat yield in field conditions was investigated. The substance was again applied either to wheat seeds before sowing (= seed dressing with substance 24 at a concentration of 50 µM) or to leaves (= spraying with substance 24 at a concentration of 5 µM) in two different growth phases - BBCH 25 and BBCH 51. All field experiments were performed according to Good Agricultural Practice. […] Table 6. Application of compound 24 increases seed yield of wheat in field conditions

For assay [2], the system named is Arabidopsis thaliana. Put plainly: Foliar application, seed yield of Arabidopsis under optimal conditions. It is filed as in vivo. The protocol: In our experiment, young Arabidopsis thaliana plants were grown in small pots in soil and they were sprayed with a 0.01 µM compound 24 (aq solution) in phase of 4 true leaves (about 14-20 days after sowing). Control plants were sprayed with an aqueous solution of DMSO (c = 0.01% (v/v)) and silwet (c = 0.001% (v/v)). Both treated (n = 25) and control plants (n = 25) were further grown under optimal conditions until their natural death. Subsequently, seeds from all plants were harvested and the yield was evaluated (Table 2). […] This means an increase in total seed yield of 21 %.
This means an increase in total seed yield of 17 %. Table 2. Foliar application of 24 increases seed yield of Arabidopsis thaliana

For assay [3], the target named is T1, ZmCKX1 (Zea mays, UniProt Q9T0N8).
T1 construct: made in house; host or cells: Yarrowia lipolytica
In words: ZmCKX1 inhibition, PMS/MTT assay. Type of assay: biochemical, maize. The settings on record: 10 µM iP as substrate, pH 7.4, 30 min at 37 °C; average of at least two measurements; read-out: IC50 (µM) ZmCKX1. The protocol:
The IC50 (concentration of a substance that causes 50% inhibition of the enzyme activity) was measured by PMS/MTT assay [phenazine methosulphate/3-(4,5-dimethylthiazol-2-yl)-2,5-diphenyltetrazolium bromide]. The assay was performed in 96-well microtiter plates. Each well contained a reaction mixture with a final concentration of: 0.1 M KH2PO4, pH 7.4, 1 mM MTT, 0.2 mM PMS, tested substance in a concentration range of 0.1 nM - 1 µM and 10 µM N^6-isopentenyladenine (iP) as a substrate. To this reaction mixture 100 µL of medium containing the active enzyme ZmCKX1 was added. The enzyme was produced by the yeast Yarrowia lipolytica and isolated according to the protocol (Kopečný D. et al., 2005, […] 87:1011-1022). The plates were incubated for 30 min at 37 °C and the enzymatic reaction was stopped by the addition of 25 µL of 35% acetic acid. Then, the absorbance at 578 nm was measured on a spectrophotometer, and the absorbance of the sample without the substrate was substracted as a reference value. The IC50 value was determined from the concentration-dependent curves in GraphPad Prism software. The values shown in Table 1 are the average of at least two measurements each performed in three repetitions. […] The substance 3,5DCl-Ph-U is 1-(3,5-dichlorophenyl)-3-phenylurea, which we have been prepared to compare its inhibitory activity with the compounds presented in the present invention. Addition of the amide group to the unsubstituted phenyl ring of this substance gives the compound 2AD-3,5DC, which has 42-fold better inhibitory activity with the ZmCKX1 enzyme than 3,5DCl-Ph-U. F-INCYDE ((2-fluoro-9H-purin-6-yl)-(3-methoxyphenyl)amine), CPPU (1-(2-chloropyridin-4-yl)-3-phenylurea), and DCPPU (1-(2,6-dichloropyridin-4-yl)-3-phenylurea) are substances known in the prior art.
For orientation: Formazan colour is commonly taken as a measure of viable cells.

The test system of assay [4] is winter rapeseed. In words: Field trial, seed yield of winter rapeseed. It is filed as in vivo. The settings on record: 1 µM foliar application; for Yield (%): 300 L per hectare, control = 100 %; for weight of one thousand seeds: control 5.38 g. The protocol:
In 2018, the effect of foliar application of substance 24 (concentration 1 µM in a volume of 300 L per hectare) on the yield of winter rapeseed was investigated in field conditions. The field trials were again performed according to Good Agricultural Practice. Substance 24 was applied to plants in two different growth phases - BBCH 30 and BBCH 33-35. […] The weight of one thousand seeds in the treated plants was 5.6 g (BBCH 30) and 5.8 g (BBCH 33-35). This phenomenon also contributed to the increase in total seed yield. Table 5. Application of substance 24 increases the seed yield of winter rapeseed in field conditions

Assay [5] has as its system Arabidopsis thaliana. Put plainly: Foliar application, life span and seed yield of Arabidopsis under drought stress. The settings on record: 0.01 µM foliar spray, reduced watering. Type of assay: in vivo. The protocol: Young Arabidopsis thaliana plants grown in small pots in soil were sprayed with a 0.01 µM aqueous solution of substance 24 in phase of four true leaves (within 14-20 days after sowing). Control plants were sprayed with an aqueous solution of DMSO (c = 0.01% (v/v)) and silwet (c = 0.001% (v/v)). Control plants were further divided into watered plants and those with reduced watering (drought stressed). […] All plants were grown until the stage of their natural death. Control watered plants lived for an average of 85 days before dying spontaneously. Their seed yield in average was 141 (± 22) mg. Control plants with reduced watering lived only 61 days on average and the average yield was 95 (± 14) mg. Plants treated with substance 24 and with reduced watering lived for an average of 75 days and their average seed yield was 117 (± 16) mg. […] Table 3. Foliar application with compound 24 reduces Arabidopsis thaliana seed yield losses

Assay [6] has as its system barley. Put plainly: Field trial, seed yield of barley. The settings on record: for Yield (%): control = 100 %. Type of assay: in vivo. The protocol:
The effect of compound 24 on seed yield of barley and its phenotype was investigated in a field trials. All field experiments were performed according to Good agricultural practices, ie. six areas of 10 m^2 were used for one variant. Furthermore, the crop was not treated with any other growth regulator (substance 24 only) or fungicide. Compound 24 was applied to seeds at a concentration of 10 µM before sowing. In 2016 barley seeds treated by this way were grown in the field and the yield of these plants was compared with the untreated control (Table 4).
In 2017, compound 24 was applied to barley leaves at a concentration of 5 µM (in a volume of 200 L per hectare) in two different growth phases - BBCH 21-23 and BBCH 51. […] Table 4. Application of substance 24 increases the seed yield of barley in field conditions

Setting [7] is: 10 µM seed application before sowing, 2016.

Where “and” joins values, the source holds several entries; their conditions need not be identical. Equal values may be shown once.

T1 sequence (Q9T0N8 19-534): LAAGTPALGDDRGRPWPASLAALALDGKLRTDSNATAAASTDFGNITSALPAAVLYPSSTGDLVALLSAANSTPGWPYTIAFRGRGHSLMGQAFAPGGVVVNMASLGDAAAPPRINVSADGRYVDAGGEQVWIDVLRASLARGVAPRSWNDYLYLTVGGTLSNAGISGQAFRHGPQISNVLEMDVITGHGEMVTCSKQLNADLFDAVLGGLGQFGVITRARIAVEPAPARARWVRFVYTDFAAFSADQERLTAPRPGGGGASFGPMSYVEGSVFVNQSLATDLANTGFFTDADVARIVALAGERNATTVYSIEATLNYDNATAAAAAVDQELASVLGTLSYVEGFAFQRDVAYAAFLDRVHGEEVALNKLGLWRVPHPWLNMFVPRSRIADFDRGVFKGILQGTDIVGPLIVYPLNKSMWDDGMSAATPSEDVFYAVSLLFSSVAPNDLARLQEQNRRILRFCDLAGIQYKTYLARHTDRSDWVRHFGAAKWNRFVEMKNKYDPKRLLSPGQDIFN

What is called IC50 is the concentration at which inhibition is half-maximal. Take `COc1ccc(C(N)=O)c(NC(=O)Nc2cc(Cl)cc(Cl)c2)c1` [compound 24, 2-[3-(3,5-Dichlorophenyl)ureido]-4-methoxybenzamide]: the “Yield (%)” value in assay [1] (5 µM foliar application, BBCH 25, 2017) is 105.9%; in assay [1] (5 µM foliar application, BBCH 51, 2017) it was 105.0%; in assay [1] (50 µM seed dressing before sowing, 2017) it was 104.0%; in assay [2] (0.01 µM foliar spray, control = 100 %) it was 121% and 117%; in assay [4] (BBCH 30, 2018) it was 106.2%; in assay [4] (BBCH 33-35, 2018), 108.8%. Besides, the “Yield (%)” value was 83% in assay [5] (watered control = 100 %); 106.3% in assay [6] (5 µM foliar application, 200 L per hectare, BBCH 21-23, 2017); 106.8% in assay [6] (5 µM foliar application, 200 L per hectare, BBCH 51, 2017); 105.3% in assay [6] (setting [7]). Further, the “tillers, more than the control plants” value in assay [1] (treated plants, mode of application not specified, 2017) is “about 7%”. The “Yield (mg), total seed yield per plant” value in assay [2] (0.01 µM aq solution sprayed in phase of 4 true leaves, n = 25, experiment and its repeat) was 148 (± 17) mg and 135 (± 13) mg and 148 ± 17 mg and 135 ± 13 mg. The seeds per silique in assay [2] (0.01 µM foliar spray, average) was 50 (± 5) and 52 (± 7). Besides, the IC50 in assay [3] stood at 0.001 µM. The “weight of one thousand seeds” value in assay [4] (BBCH 30) is given as 5.6 g; in assay [4] (BBCH 33-35) it was 5.8 g. Besides, the results for the “Yield (mg), average seed yield” value in assay [5] and in assay [5] (listed as substance 24) were 117 ± 16 mg and 117 (± 16) mg, respectively. The “life span (lived for an average of)” value in assay [5] was 75 days. Also, the “number of tillers, more than the control plants” value in assay [6] (setting [7]) came out at 14%.
